The text below walks through data of ChEMBL document CHEMBL1133814, “Synthesis and progesterone receptor antagonist activities of 6-aryl benzimidazolones and benzothiazolones” (Bioorg Med Chem Lett, 2001).

The target of assay [1] is T1, Progesterone receptor (Homo sapiens, UniProt P06401).
T1 sequence (P06401 whole entry): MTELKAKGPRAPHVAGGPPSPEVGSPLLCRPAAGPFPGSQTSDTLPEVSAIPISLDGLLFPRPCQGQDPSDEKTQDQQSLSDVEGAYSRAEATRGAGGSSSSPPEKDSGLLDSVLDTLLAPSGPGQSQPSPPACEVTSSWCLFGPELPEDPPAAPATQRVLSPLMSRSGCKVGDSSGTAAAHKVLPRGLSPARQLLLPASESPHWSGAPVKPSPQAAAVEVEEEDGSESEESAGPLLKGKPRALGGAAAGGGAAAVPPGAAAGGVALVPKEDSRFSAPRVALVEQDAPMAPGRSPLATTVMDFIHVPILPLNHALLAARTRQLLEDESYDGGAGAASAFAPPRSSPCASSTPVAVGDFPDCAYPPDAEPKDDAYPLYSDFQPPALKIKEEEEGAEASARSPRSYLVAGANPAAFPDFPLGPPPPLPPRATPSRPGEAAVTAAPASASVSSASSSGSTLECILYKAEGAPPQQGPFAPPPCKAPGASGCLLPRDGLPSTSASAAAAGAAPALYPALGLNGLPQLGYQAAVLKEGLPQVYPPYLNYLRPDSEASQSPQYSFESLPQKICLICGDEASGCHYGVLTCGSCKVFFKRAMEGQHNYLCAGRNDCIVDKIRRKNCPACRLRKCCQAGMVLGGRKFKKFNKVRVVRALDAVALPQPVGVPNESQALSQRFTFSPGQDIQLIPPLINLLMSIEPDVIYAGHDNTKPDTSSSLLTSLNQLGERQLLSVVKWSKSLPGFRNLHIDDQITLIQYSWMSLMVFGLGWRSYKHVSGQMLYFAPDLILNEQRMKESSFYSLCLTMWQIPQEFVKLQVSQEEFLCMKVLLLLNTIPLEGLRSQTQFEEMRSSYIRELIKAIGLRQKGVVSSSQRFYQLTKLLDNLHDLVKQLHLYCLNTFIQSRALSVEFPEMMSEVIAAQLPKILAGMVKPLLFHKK
Briefly: Inhibitory concentration against progesterone stimulated alkaline phosphatase activity in T47D human breast carcinoma cell line. The format is cell-based.

The target of assay [2] is T1, Progesterone receptor. Briefly: Binding affinity towards progesterone receptor was measured.
Assay [3] concerns the target T1, Progesterone receptor. Briefly: Inhibitory concentration against progesterone induced PRE-luciferase activity in CV-cells. The arrangement: species or system Oryctolagus cuniculus.

Usually IC50 stands for the concentration that gives 50% inhibition. A lower IC50 goes with higher potency. `S=c1[nH]c2cc(-c3cccc(Cl)c3)ccc2n1Cc1ccccc1` displayed an IC50 at Progesterone receptor [1] above 10000 nM.
The Ki is a measure of affinity in units of concentration, obtained from inhibition or displacement. `O=[N+]([O-])c1cccc(-c2ccc3[nH]c(=S)n(Cc4ccccc4)c3c2)c1` displayed a Ki at Progesterone receptor [2] of 30 nM. In addition, at Progesterone receptor [1], the IC50 came to 10 nM.
Regarding `O=[N+]([O-])c1cccc(-c2ccc3c(c2)nc(O)n3Cc2ccccc2)c1`, the half-maximal inhibitory concentration (IC50) on Progesterone receptor [3] and at Progesterone receptor [1] was above 10000 nM throughout. The Ki on Progesterone receptor [2] was above 10000 nM.
`O=c1[nH]c2ccc(-c3cccc(Cl)c3)cc2n1Cc1ccccc1` showed a Ki on Progesterone receptor [2] of 521 nM. The compound also displayed an IC50 at Progesterone receptor [1] of 113 nM.
Regarding `Oc1nc2cc(-c3cccc(Cl)c3)ccc2n1Cc1ccccc1`, the IC50 was 3060 nM against Progesterone receptor [3] and above 10000 nM at Progesterone receptor [1]. For the same compound, at Progesterone receptor [2], affinity was put at a Ki of 3130 nM.
In the case of `CC(C)n1c(=O)[nH]c2ccc(-c3cccc([N+](=O)[O-])c3)cc21`, the IC50 against Progesterone receptor [3] amounted to 136 nM; on Progesterone receptor [1], 73.1 nM. The compound also showed a Ki on Progesterone receptor [2] of 525 nM.
For `CCn1c(=O)[nH]c2ccc(-c3cccc(Cl)c3)cc21`, in that order: 106 nM, 29.2 nM and around 1000 nM.
As for `O=c1[nH]c2ccc(-c3cccc([N+](=O)[O-])c3)cc2n1Cc1ccccc1`, the IC50 came to 257 nM against Progesterone receptor [3] and 62 nM against Progesterone receptor [1]. This compound also displayed a Ki on Progesterone receptor [2] of 714 nM.
Taken in the same sequence, the figures for `O=c1[nH]c2ccc(-c3cccc([N+](=O)[O-])c3)cc2s1` were 326 nM, 83.8 nM and 332 nM.
Regarding `O=c1[nH]c2ccc(-c3cccc(Cl)c3)cc2s1`, the IC50 amounted to 265 nM at Progesterone receptor [3] and 460 nM on Progesterone receptor [1]. On Progesterone receptor [2], the affinity, expressed as Ki, was 127 nM.
Taken in the same sequence, the figures for `CC(C)n1c(=O)[nH]c2ccc(-c3cccc(Cl)c3)cc21` were 412 nM, 113 nM and 525 nM.
In turn, `S=c1[nH]c2ccc(-c3cccc(Cl)c3)cc2n1Cc1ccccc1` displayed a Ki at Progesterone receptor [2] of 150 nM. On Progesterone receptor [1], this compound yielded an IC50 of 17 nM.
Compound `Cn1c(=O)[nH]c2ccc(-c3cccc(Cl)c3)cc21` registered an IC50 against Progesterone receptor [1] of 1000 nM.
In the case of `Cn1c(=O)[nH]c2ccc(-c3cccc([N+](=O)[O-])c3)cc21`, the Ki at Progesterone receptor [2] is above 10000 nM. For the same compound, the IC50 against Progesterone receptor [1] is 1000 nM.
